# Test results as given in publication PMC3454376, “Salidroside Improves Behavioral and Histological Outcomes and Reduces Apoptosis via PI3K/Akt Signaling after Experimental Traumatic Brain Injury” (PLoS ONE, 2012).
# Test system: mice subjected to controlled cortical impact injury
# Test: Rotarod motor test after CCI
# Assay type: in vivo
# Protocol: All animal procedures were approved by the Animal Research Committee at Cheng Hsin General Hospital (Animal permit number CHIACUC 101–08), and all procedures complied with the Guide for the Care and Use of Laboratory Animals published by the US National Institutes of Health (NIH Publication No. 85–23, revised 1996). Animals were housed under a 12-h light/dark cycle and at constant temperature (21–25°C) and humidity (45–50%). They were allowed free access to pellet chow and water. TBI in mice was induced by a CCI injury model as previously described. Briefly, 8-week-old male C57BL/6 mice (weighing 22–25 g) were anesthetized through the use of intraperitoneal injection of sodium pentobarbital (65 mg/kg; Rhone Merieux, Harlow, UK) and placed in a stereotaxic frame. A 5 mm craniotomy was performed over the right parietal cortex, centered on the coronal suture and 0.1 mm lateral to the sagittal suture, and injury to dura was avoided. […] Body temperature was monitored throughout the surgery by a rectal probe; temperature was maintained at 37.0±0.5°C using a heated pad. […]
# Three sets of experiments were performed. […] To determine the optimal dose of salidroside, a pilot study was performed using 2 different doses (20 and 50 mg/kg) administered 10 min after injury, and neurological deficits and tissue damage were evaluated as the main outcomes. […]
compound,measurement,setting,value
"OC[C@H]1O[C@@H](OCCc2ccc(O)cc2)[C@H](O)[C@@H](O)[C@@H]1O [SALD, salidroside]",rotarod performance versus vehicle group,"20 mg/kg ip 10 min after CCI, whole observation period (28 days), all P<0.05",significantly better performance
same,rotarod outcome versus vehicle group,"50 mg/kg ip 10 min after CCI, only at days 14 and 28, P<0.05",significantly improved
